Consider six compounds from ChEMBL document CHEMBL1143712, “Structure-activity relationships of novel N-acyloxy-1,4-dihydropyridines as P-glycoprotein inhibitors” (Bioorg Med Chem, 2007).

The first data set deals with T1, ATP-dependent translocase ABCB1 (Mus musculus, UniProt P06795). As to the kind of experiment: Inhibition of P-glycoprotein in MDR mouse T lymphoma cells using rhodamine 123 assessed as ratio of fluorescent uptake relative to untreated control at 10 uM in MDR reversal assay by flow cytometry. Type of data set: cell-based.
T1 sequence (P06795 whole entry): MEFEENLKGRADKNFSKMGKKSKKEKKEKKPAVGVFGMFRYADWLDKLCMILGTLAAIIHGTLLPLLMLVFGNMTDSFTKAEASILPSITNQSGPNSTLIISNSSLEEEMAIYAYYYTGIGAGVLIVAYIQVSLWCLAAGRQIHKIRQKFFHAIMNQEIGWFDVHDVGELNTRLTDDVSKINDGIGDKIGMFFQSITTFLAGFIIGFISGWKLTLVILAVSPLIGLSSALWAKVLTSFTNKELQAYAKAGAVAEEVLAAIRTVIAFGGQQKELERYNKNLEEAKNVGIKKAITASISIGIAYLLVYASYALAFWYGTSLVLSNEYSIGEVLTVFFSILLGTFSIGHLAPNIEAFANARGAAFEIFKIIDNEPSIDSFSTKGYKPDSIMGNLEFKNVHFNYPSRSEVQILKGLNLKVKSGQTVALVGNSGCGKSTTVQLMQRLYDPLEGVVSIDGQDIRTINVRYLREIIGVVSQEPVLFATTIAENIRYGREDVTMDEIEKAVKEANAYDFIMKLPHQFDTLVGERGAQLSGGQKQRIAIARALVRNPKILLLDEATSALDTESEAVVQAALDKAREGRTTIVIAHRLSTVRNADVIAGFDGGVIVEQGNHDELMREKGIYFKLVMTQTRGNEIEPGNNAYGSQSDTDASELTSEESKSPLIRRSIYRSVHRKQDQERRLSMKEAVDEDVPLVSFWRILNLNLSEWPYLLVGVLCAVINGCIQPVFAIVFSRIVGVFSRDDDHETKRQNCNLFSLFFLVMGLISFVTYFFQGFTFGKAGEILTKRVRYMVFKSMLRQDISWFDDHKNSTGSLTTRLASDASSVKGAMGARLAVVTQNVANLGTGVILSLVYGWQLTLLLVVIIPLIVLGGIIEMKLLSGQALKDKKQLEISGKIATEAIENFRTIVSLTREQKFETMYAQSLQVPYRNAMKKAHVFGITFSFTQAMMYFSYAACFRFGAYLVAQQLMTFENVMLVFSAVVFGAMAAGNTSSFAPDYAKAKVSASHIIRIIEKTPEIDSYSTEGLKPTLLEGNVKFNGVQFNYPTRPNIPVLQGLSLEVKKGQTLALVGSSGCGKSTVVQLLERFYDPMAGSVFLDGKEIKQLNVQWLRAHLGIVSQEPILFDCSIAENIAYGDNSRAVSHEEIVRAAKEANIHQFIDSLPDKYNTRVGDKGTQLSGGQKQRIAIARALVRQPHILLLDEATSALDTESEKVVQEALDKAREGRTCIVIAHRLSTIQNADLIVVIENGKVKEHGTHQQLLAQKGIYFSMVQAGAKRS
On to `COc1ccccc1C1C=CN(C(=O)Oc2ccccc2)C=C1C(C)=O` (configuration not stated), for which the Activity amounted to 5.15.
Same read-out and setting: next, `CCOC(=O)C1=CN(C(=O)Oc2ccccc2)C=CC1c1ccc(OC)cc1` (configuration not stated): 19.87; `CCOC(=O)C1=CN(C(=O)Oc2ccccc2)C=CC1c1ccc(C)cc1` (configuration not stated): 3.09; `CCOC(=O)C1=CN(C(=O)Oc2ccccc2)C=CC1c1ccccc1OC` (configuration not stated): 39.98.
As to `CC(=O)C1=CN(C(=O)Oc2ccccc2)C=CC1c1ccc(C)cc1` (configuration not stated), the Activity was determined as 3.58.
Take `COc1ccc(C2C=CN(C(=O)Oc3ccccc3)C=C2C(C)=O)cc1` (configuration not stated): the Activity stood at 7.1.

A further data set deals with T1, ATP-dependent translocase ABCB1. The experiment in a line: Inhibition of P-glycoprotein in MDR mouse T lymphoma cells using rhodamine 123 assessed as ratio of fluorescent uptake relative to untreated control at 1 uM in MDR reversal assay by flow cytometry. Type of data set: cell-based.
With `COc1ccccc1C1C=CN(C(=O)Oc2ccccc2)C=C1C(C)=O` (configuration not stated), the Activity is on record as 1.01.
Take `CCOC(=O)C1=CN(C(=O)Oc2ccccc2)C=CC1c1ccc(OC)cc1` (configuration not stated): the Activity was 1.3.
The same measure, in the same setting: the result for `CCOC(=O)C1=CN(C(=O)Oc2ccccc2)C=CC1c1ccc(C)cc1` (configuration not stated) reads 1.04.
Still for that read-out and setting: the result for `CCOC(=O)C1=CN(C(=O)Oc2ccccc2)C=CC1c1ccccc1OC` (configuration not stated) reads 1.6; that for `CC(=O)C1=CN(C(=O)Oc2ccccc2)C=CC1c1ccc(C)cc1` (configuration not stated), 1.41; that for `COc1ccc(C2C=CN(C(=O)Oc3ccccc3)C=C2C(C)=O)cc1` (configuration not stated), 1.81.
